Patent US10370436B2, “Anti-pseudomonas Psl binding molecules and uses thereof” (priority 2011, dated 2019)

How the values were obtained:
[1] = tested on: P. aeruginosa PAO1 and isogenic mutants; experiment: Indirect ELISA on plates coated with P. aeruginosa strains; type: binding, Pseudomonas aeruginosa
From the text: In addition, duplication of VH CDR3 loop sequences in the libraries (a measure of clonal enrichment during selection), was also found to be higher in the patient library, reaching 88-92%, compared to 15-25% in the naïve library at round 3 (FIG. 1D). Individual scFv phage from affinity selections were next screened by ELISA for reactivity to P. aeruginosa heterologous serotype strains (FIG. 1E). ELISA plates (Nunc; MAXISORP™) were coated with P. aeruginosa strains from overnight cultures as described (DiGiandomenico, A., et al., Infect Immun 72, 7012-7021 (2004)). Diluted antibodies were added to blocked plates for 1 hour, washed, and treated with HRP-conjugated anti-human secondary antibodies for 1 hour followed by development and analysis as described (Ulbrandt, N. D., et al., J Virol 80, 7799-7806 (2006)). The dominant species of phage obtained from whole cell selections with both libraries yielded serotype specific reactivity (data not shown).
This example describes identification of the target of anti-P. aeruginosa antibodies derived from phenotypic screening. Target analysis was performed to test whether the serotype independent antibodies targeted protein or carbohydrate antigens. […] Isogenic mutants were constructed in genes responsible for O-antigen, alginate, and LPS core biosynthesis; wbpL (O-antigen-deficient); wbpL/algD (O-antigen and alginate deficient); rmlC (O-antigen-deficient and truncated outer core); and galU (O-antigen-deficient and truncated inner core). P. aeruginosa mutants were constructed based on the allele replacement strategy described by Schweizer (Schweizer, H. P., Mol Microbiol 6, 1195-1204 (1992); Schweizer, H. D., Biotechniques 15, 831-834 (1993)). Vectors were mobilized from E. coli strain 517.1 into P. aeruginosa strain PAO1; recombinants were isolated as described (Hoang, T. T., et al., Gene 212, 77-86 (1998)). Gene deletion was confirmed by PCR. P. aeruginosa mutants were complemented with pUCP30T-based constructs harboring wild type genes. […] The rmlC and galU genes were recently shown to be required for biosynthesis of the Psl exopolysaccharide, a repeating pentasaccharide polymer consisting of D-mannose, L-rhamnose, and D-glucose. Cam-003 binding to an isogenic pslA knockout PAO1ΔpslA, was tested, as pslA is required for Psl biosynthesis (Byrd, M. S., et al., Mol Microbiol 73, 622-638 (2009)). Binding of Cam-003 to PAO1ΔpslA was abolished when tested by ELISA (FIG. 3B) and FACS (FIG. 3C), while the LPS molecule in this mutant was unaffected (FIG. 3D). Binding of Cam-003 was restored in a PAO1ΔwbpL/algD/pslA triple mutant complemented with pslA (FIG. 3E) as was the ability of Cam-003 to mediate opsonic killing to complemented PAO1ΔpslA in contrast to the mutant (FIGS. 3F and 3G). Binding of Cam-003 antibody to a Pcl exopolysaccharide mutant was also unaffected further confirming Psl as our antibody target (FIG. 3E). Binding assays confirmed that the remaining antibodies also bound Psl (FIGS. 3H and 3I).

[2] = tested on: P. aeruginosa strains PAO1, 33356, 6294, 6077, 6206; experiment: Acute pneumonia model, organ burden; type: in vivo, BALB/c mice
Procedure: Antibodies or PBS were administered 24 hours before infection in each model. P. aeruginosa acute pneumonia, keratitis, and thermal injury infection models were performed as described (DiGiandomenico, A., et al., Proc Natl Acad Sci USA 104, 4624-4629 (2007)), with modifications. In the acute pneumonia model, BALB/c mice (The Jackson Laboratory) were infected with P. aeruginosa strains suspended in a 0.05 ml inoculum. In the thermal injury model, CF-1 mice (Charles River) received a 10% total body surface area burn with a metal brand heated to 92° C. for 10 seconds. Animals were infected subcutaneously with P. aeruginosa strain 6077 at the indicated dose. For organ burden experiments, acute pneumonia was induced in mice followed by harvesting of lungs, spleens, and kidneys 24 hours post-infection for determination of CFU.

[3] = tested on: P. aeruginosa strain 6294; experiment: P. aeruginosa sepsis model; type: in vivo, C57Bl/6 mice
Procedure: C57Bl/6 mice (10 per group) were dosed with mAb or PMB-mAb conjugates i.p (10, 1 and 0.1 mg/kg) 6 h prior to i.p. challenge with LD80-100 dose of P. aeruginosa strain 6294 (4E7 CFU). Data from two studies was combined in this analysis. Survival was monitored over 72 h. Combined results of two studies are shown in FIGS. 21A-C: Most control mice dosed with A7 or buffer died by 24 h. […] Conversely, the conjugates were less protective than CAM-003 at the low dose of 0.1 mg/kg, and protective activity correlated with in vitro OPK activity of the conjugates (WT>SM>DM>TM).

With “Cam-003: human IgG1 anti-Psl monoclonal antibody, VH SEQ ID NO: 1 and VL SEQ ID NO: 2” the “reactivity to purified LPS” value ([1]; LPS purified from PAO1) was “not observed”, the ELISA binding ([1]; PAO1ΔpslA, FIG. 3B) was “abolished” and the ELISA binding ([1]; PAO1ΔwbpL/algD/pslA triple mutant complemented with pslA, FIG. 3E) was “restored”. For the same substance, the ELISA binding ([1]; Pcl exopolysaccharide mutant, FIG. 3E) was “unaffected”, the ELISA binding ([1]; rmlC and galU mutants, FIGS. 3A, 3J) was “abolished” and the ELISA binding ([1]; wbpL or wbpL/algD double mutant, FIGS. 3A, 3J) was “unaffected”. For the same substance, the “dissemination to the spleen and kidneys” value ([2]; PAO1, 6294 and 6077, FIGS. 7A, 7C, 7D) was “marked effect in reducing dissemination to the spleen and kidneys”, the “lung burden (viable CFU)” value ([2]; PAO1, 33356, 6294, 6077, 24 hours post-infection, FIGS. 7A-D) was “effective at reducing P. aeruginosa lung burden against all four strains tested” and the “lung burden, dose dependence” value ([2]; cytotoxic strain 6077, FIG. 7D) was “the low dose was as effective as the higher dose”. The “dose relation of protective activity” value ([3]; 10, 1 and 0.1 mg/kg) was “inversely correlated with dose” and the protection ([3]; 10, 1 and 0.1 mg/kg i.p. 6 h prior to i.p. challenge, survival over 72 h, FIGS. 21A-C) was 50-90%.
